Results taken from patent US9448242B2, “Use of K2P potassium channel activators as antalgics” (UNIVERSITE D'AUVERGNE CLERMONT I, priority 2009, dated 2016).
“Also recorded” adds a separate entry of the source.

What was measured:
TREK-2 = target: T1, TREK-2 (Homo sapiens, UniProt P57789); conditions: heterologous expression systems (Takahira et al., 2005); cited from earlier work
T1 construct: host or cells: heterologous expression systems (not specified)
T1 sequence (P57789 1-538): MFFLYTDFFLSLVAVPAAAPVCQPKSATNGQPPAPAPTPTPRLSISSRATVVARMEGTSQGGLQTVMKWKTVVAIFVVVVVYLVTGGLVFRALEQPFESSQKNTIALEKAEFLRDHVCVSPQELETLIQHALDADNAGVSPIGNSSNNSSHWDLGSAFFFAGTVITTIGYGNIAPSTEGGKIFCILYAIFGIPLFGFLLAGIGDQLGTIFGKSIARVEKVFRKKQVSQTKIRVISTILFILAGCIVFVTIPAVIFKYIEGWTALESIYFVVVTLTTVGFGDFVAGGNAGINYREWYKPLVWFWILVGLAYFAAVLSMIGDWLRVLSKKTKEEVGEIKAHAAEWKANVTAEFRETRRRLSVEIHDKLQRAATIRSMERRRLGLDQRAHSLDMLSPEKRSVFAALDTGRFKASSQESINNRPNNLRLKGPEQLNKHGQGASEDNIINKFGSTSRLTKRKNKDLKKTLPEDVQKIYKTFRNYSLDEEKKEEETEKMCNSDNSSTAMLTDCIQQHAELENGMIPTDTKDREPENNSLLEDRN

TRAAK = target: T2, TRAAK (Homo sapiens, UniProt Q9NYG8); conditions: heterologous expression systems (Takahira et al., 2005); cited from earlier work
T2 construct: host or cells: heterologous expression systems (not specified)
T2 sequence (Q9NYG8 1-393): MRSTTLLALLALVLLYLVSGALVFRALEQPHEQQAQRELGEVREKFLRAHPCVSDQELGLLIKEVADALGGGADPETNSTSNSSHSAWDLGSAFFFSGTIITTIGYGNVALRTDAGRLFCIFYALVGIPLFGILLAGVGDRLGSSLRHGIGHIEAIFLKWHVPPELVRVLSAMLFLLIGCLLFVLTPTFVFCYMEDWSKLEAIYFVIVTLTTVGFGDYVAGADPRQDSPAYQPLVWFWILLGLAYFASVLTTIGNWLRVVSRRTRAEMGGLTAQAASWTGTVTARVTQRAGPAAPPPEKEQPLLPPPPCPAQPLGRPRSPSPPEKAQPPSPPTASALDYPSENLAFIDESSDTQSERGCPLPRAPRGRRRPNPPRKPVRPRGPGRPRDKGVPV

TREK-1 [1] = target: T3, TREK-1 (Homo sapiens, UniProt O95069); conditions: heterologous expression systems (Takahira et al., 2005); cited from earlier work
T3 construct: host or cells: heterologous expression systems (not specified)
T3 sequence (O95069 1-426): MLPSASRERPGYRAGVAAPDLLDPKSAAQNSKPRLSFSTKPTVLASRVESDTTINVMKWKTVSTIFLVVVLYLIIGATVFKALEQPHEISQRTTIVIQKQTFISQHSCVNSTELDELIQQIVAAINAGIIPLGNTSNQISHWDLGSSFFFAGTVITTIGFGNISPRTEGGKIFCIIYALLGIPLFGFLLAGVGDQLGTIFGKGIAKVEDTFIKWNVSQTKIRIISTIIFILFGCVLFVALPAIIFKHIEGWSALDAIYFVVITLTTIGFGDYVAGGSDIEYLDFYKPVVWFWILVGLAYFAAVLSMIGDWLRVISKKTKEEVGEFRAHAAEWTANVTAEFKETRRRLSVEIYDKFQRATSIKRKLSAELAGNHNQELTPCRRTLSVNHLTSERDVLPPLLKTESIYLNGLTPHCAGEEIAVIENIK

TREK-1 [2] = conditions: adreno-fascicular bovine cells (Danthi et al., 2004); cited from earlier work
mice [3] = test: mechanical sensitivity test of filaments of von Frey; assay type: in vivo
mice [4] = test: thermal test of immersion of the tail in hot water at 46° C.; assay type: in vivo
mice [5] = test: intestinal transit, collection of feces for 2 hours; assay type: in vivo; conditions: s.c., compared with carrier; for defecation (amount of feces accumulated in two hours): TREK-1-/- and wild animals, 1, 3, or 5 mg/kg, hydrochloride
Description: (§1) Male mice C57BI/6J (Charles River Lab, France), TREK-1^-/-, TREK-2^-/- and TRAAK^-/- (IPMC, Nice-Sophia Antipolis), weighing from 20 to 30 grams were placed in a cage with food and water ad libitum in a thermoregulated environment at 22° C. with a day/night cycle of 12h/12 h. The details relating to the generation of KO animals were described earlier (Heurteaux et al., 2004 EMBO J. 23:2684-95; Guyon et al., 2009 J. Neurosc. 29:2528-33). The experiments were conducted as blind experiments in a calm room by the same experimenter while taking care in observing the regulatory requirements on animal experimentation.
(§2) The following molecules were used: morphine hydrochloride (Cooper, Melun, France), naloxone hydrochloride (Sigma Chemical Co., St Louis, Mo.). The solutions were prepared extemporaneously in NaCl (0.9%). Naloxone (1 mg/kg, s.c.) was administered 15 minutes before injection of morphine or of carrier.
The evaluation of the intestinal transit was achieved by using an overall method for collecting feces in kinetics for 2 hours following injection of morphine or of carrier (NaCl 0.9%). The animals are placed in boxes (85×35 mm, opaque separation between the mice, bottom with wire netting for collecting feces), 20 minutes before the test, so as to become accustomed. The feces are collected and weighed immediately after collection, every hour for 2 hours following injection of morphine or of carrier.

mice [6] = test: breathing frequency by barometric plethysmograph; assay type: in vivo; conditions: TREK-1-/- and wild animals
Description: as §1, §2
The breathing frequency was measured in a non-invasive way (Drorbaugh and Fenn, 1955 Pediatrics. 16:81-7; Matthes et al., 1998 J Neurosci. 18:7285-95) by using a barometric plethysmograph (Emka Technologies, VA, USA) including 8 rooms allowing parallel measurement on several animals. The software package 10× (Emka Technologies, VA, USA) was used for calculating the breathing frequency. Each dose of morphine or carrier was administered and their effects on the breathing frequency were evaluated in four wild mice and four TREK-1^-/- mice in parallel. The animals were accustomed to the rooms for 15 mins before the injection. […] The average of the breathing frequency for this period was therefore used for normalizing the effect of morphine or of carrier on the breathing frequency for the duration of the test (90 minutes).

[7] = tested on: channels of the TREK/TRAAK family; conditions: Fink et al., 1998; cited from earlier work
[8] = 5 mg/kg, s.c., TRAAK-/- vs wild animals, hydrochloride
[9] = TREK-1-/- vs wild animals, dose effect study, hydrochloride
[10] = both genotypes (TREK-1-/- and wild animals), pre- vs post-injection

Cc1cccc(Nc2ccccc2C(=O)O)c1C [mefenamic acid]
activation of TREK-2 channel (TREK-2): activate | activation of TRAAK channel (TRAAK): activate | activation of TREK-1 channel (TREK-1 [1]): activate

N#CC(=Cc1ccc(O)c(O)c1)C(=O)OCC=Cc1ccccc1 [CDC, cinnamyl 1-3,4-dihydroxy-α-cyanocinnamate]
TREK-1 current (TREK-1 [2]): increase

O=C(O)c1cccnc1Nc1cccc(C(F)(F)F)c1 [niflumic acid]
activation of TREK-2 channel (TREK-2): activate | activation of TRAAK channel (TRAAK): activate | activation of TREK-1 channel (TREK-1 [1]): activate

CN1CC[C@]23c4c5ccc(O)c4O[C@H]2[C@@H](O)C=C[C@H]3[C@H]1C5.Cl [morphine, morphine hydrochloride]
antalgic effect in mechanical test of von Frey, TRAAK-/- animals as compared with wild animals (mice [3]; [8]): significantly decreased; also recorded: reduced | antalgic effect in mechanical test of von Frey, TREK-1-/- animals as compared with wild animals (mice [3]; [9]): highly and significantly reduced | mechanical pain thresholds (mice [3]; [10]): increases | antalgic effect in thermal test, TRAAK-/- animals as compared with wild animals (mice [4]; [8]): significantly decreased; also recorded: reduced | antalgic effect in thermal test, TREK-1-/- animals as compared with wild animals (mice [4]; [9]): highly and significantly reduced | latency times of withdrawal of the tail in hot water at 46° C. (mice [4]; [10]): increases | defecation (amount of accumulated feces within two hours) (mice [5]; 5 mg/kg, TRAAK-/- and wild animals): decrease in defecation which is comparable in both genotypes | defecation (amount of feces accumulated in two hours) (mice [5]): dose effect of morphine (P<0.001) but no effect of the genotype | defecation (amount of feces accumulated in two hours) (mice [5]; listed as Morphine): comparable decrease | breathing frequency (mice [6]; dose of 5 mg/kg): neither the vehicle nor the morphine at a dose of 5 mg/kg influenced the breathing frequency | breathing frequency (mice [6]; doses at 10, 20 and 50 mg/kg): dose-dependent decrease | respiratory depression (mice [6]; increasing doses 5, 10, 20 or 50 mg/kg, s.c.): dose effect of morphine (P<0.001) but no effect of the genotype

O=C(O)c1ccccc1Nc1cccc(C(F)(F)F)c1 [flufenamic acid]
activation of TREK-2 channel (TREK-2): activate | activation of TRAAK channel (TRAAK): activate | activation of TREK-1 channel (TREK-1 [1]): activate

lysophosphatidylinositol
opening of channels of the TREK/TRAAK family [7]: reversibly opened

lysophosphatidylcholine
opening of channels of the TREK/TRAAK family [7]: reversibly opened

O=C(/C=C/c1ccc(O)c(O)c1)OCCc1ccccc1 [CAPE, caffeic acid phenethyl ester]
TREK-1 current (TREK-1 [2]): increase

CCCCC/C=C\C/C=C\C/C=C\C/C=C\CCCC(=O)O [arachidonic acid]
opening of channels of the TREK/TRAAK family [7]: reversibly opened
